The text below walks through data of PubChem BioAssay (NCI).

Test systems include KM12 colon; K-562 leukemia; UO-31 renal; LOX IMVI melanoma; SF-539 CNS; SN12C renal; OVCAR-8 ovarian; COLO 205 colon; NCI-H522 lung; SW-620 colon.
Common to all, as to experiment: DTP human tumour cell line panel, 48 h

Molecules are shown by their SMILES. “And” between values parts separate entries of the source, which are not always exact repeats. Equal entries are not always repeated.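 A five-concentration, 48-hour dose response in 96-well plates underlies each endpoint, interpolated linearly between surrounding concentrations. GI50 marks 50% less growth. TGI marks complete inhibition of growth.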

Take `O=C(Nc1ccn(CCO)c(=O)n1)c1ccccc1`: the TGI with KM12 colon, in the assay with K-562 leukemia, with UO-31 renal, in the assay on LOX IMVI melanoma, in the assay on SF-539 CNS and in the assay with SN12C renal was > 100 µM each time. The concentration for total growth inhibition (TGI) in the assay on OVCAR-8 ovarian, with COLO 205 colon, in the assay with NCI-H522 lung and with SW-620 colon was > 100 µM each time.

On to `C=C1C(=O)OC2CC(C)C(C(CC(C)=O)OC(C)=O)=CCC12` (centres undefined), for which the TGI in the assay with KM12 colon stood at 37.2 µM; in the assay with K-562 leukemia, 17.9 µM; in the assay with UO-31 renal, 29.7 µM; with LOX IMVI melanoma, 18.8 µM; in the assay on SF-539 CNS, 69.3 µM; in the assay on SN12C renal, 15 µM. Besides, the TGI was > 51.8 µM in the assay with OVCAR-8 ovarian, 21.2 µM in the assay with COLO 205 colon, 3.27 µM in the assay with NCI-H522 lung and 10.6 µM with SW-620 colon.

In the case of `Oc1ccc(Nc2ncnc3c2sc2ncccc23)cc1`, the GI50 was 1.73 µM in the assay on KM12 colon; 0.36 µM with K-562 leukemia; 0.0241 µM with UO-31 renal; 0.0368 µM in the assay with LOX IMVI melanoma; 0.0266 µM in the assay with SF-539 CNS; 0.244 µM with SN12C renal. Further, the GI50 is 0.0261 µM with OVCAR-8 ovarian, 0.0726 µM in the assay on COLO 205 colon, 0.0369 µM with NCI-H522 lung and 0.0824 µM in the assay with SW-620 colon. For the same molecule, the total growth inhibition concentration (TGI) in the assay on KM12 colon is > 100 µM; in the assay on K-562 leukemia it was > 100 µM; in the assay with UO-31 renal, 5.02 µM; in the assay with LOX IMVI melanoma it was > 100 µM; in the assay on SF-539 CNS, 0.293 µM; in the assay with SN12C renal it was > 100 µM. Moreover, the concentration for total growth inhibition (TGI) is > 30.9 µM in the assay on OVCAR-8 ovarian, > 100 µM in the assay with NCI-H522 lung and > 100 µM in the assay with SW-620 colon.

For `COC(=O)c1ccc2c(c1)nc(NC(=O)c1ccccc1)n2CCCc1ccccc1`, the GI50 with KM12 colon is 4.5 µM; in the assay with K-562 leukemia, 3.26 µM; in the assay on UO-31 renal it was 4.07 µM; in the assay with LOX IMVI melanoma it was 2.63 µM; with SF-539 CNS it was 3.8 µM; with SN12C renal, 17.6 µM. The GI50 with OVCAR-8 ovarian is 4.79 µM; in the assay on COLO 205 colon, 3.89 µM; with NCI-H522 lung, 3.58 µM; with SW-620 colon, 4.03 µM. In addition, the TGI in the assay on KM12 colon, in the assay with K-562 leukemia, with UO-31 renal, in the assay on LOX IMVI melanoma, with SF-539 CNS and in the assay with SN12C renal was > 100 µM throughout. Moreover, the TGI in the assay with OVCAR-8 ovarian is > 100 µM; in the assay on COLO 205 colon it was > 100 µM; in the assay on NCI-H522 lung it was 99.3 µM; in the assay with SW-620 colon, > 100 µM.

Turning to `COc1cccc2c1C(=O)c1c(O)c3c(c(O)c1C2=O)C[C@@](O)(C(=O)CO)C[C@@H]3OC1CC(N)CC(C)O1` (some centres undefined), the GI50 with KM12 colon is 0.0798 µM and 0.0515 µM; with K-562 leukemia, 0.0243 µM and 0.0414 µM; with UO-31 renal, 0.192 µM and 0.362 µM; in the assay with LOX IMVI melanoma, 0.0295 µM and 0.0231 µM; with SF-539 CNS it was 0.0189 µM and 0.0471 µM; in the assay on SN12C renal, 0.0232 µM. Also, the GI50 was 0.0359 µM and 0.052 µM in the assay on OVCAR-8 ovarian; 0.0823 µM with COLO 205 colon; 0.0339 µM in the assay on NCI-H522 lung; 0.0117 µM and 0.0389 µM in the assay with SW-620 colon. Moreover, the concentration for total growth inhibition (TGI) in the assay with KM12 colon is 1.31 µM and 1.89 µM; in the assay with K-562 leukemia, 0.783 µM and 0.406 µM; in the assay with UO-31 renal, 0.771 µM and 1.61 µM; in the assay with LOX IMVI melanoma, 0.262 µM and 0.12 µM; in the assay on SF-539 CNS, 0.194 µM and 0.211 µM; in the assay with SN12C renal it was 1.43 µM and 1.07 µM. In addition, the TGI is 1.13 µM and 0.546 µM with OVCAR-8 ovarian; 0.389 µM and 0.351 µM in the assay with COLO 205 colon; 0.179 µM and 0.303 µM with NCI-H522 lung; 0.434 µM and 1.36 µM with SW-620 colon.

For `O=C(Nc1ccc(Br)cc1F)c1cc(F)ccc1O`, the GI50 is 2.04 µM in the assay with KM12 colon; 0.445 µM in the assay with K-562 leukemia; 0.21 µM with UO-31 renal; 0.405 µM in the assay on LOX IMVI melanoma; 0.42 µM in the assay on SF-539 CNS; 0.366 µM in the assay on SN12C renal. Further, the GI50 in the assay with OVCAR-8 ovarian was 1.3 µM; in the assay on COLO 205 colon, 2.46 µM; in the assay with NCI-H522 lung it was 0.319 µM; with SW-620 colon, 0.805 µM. In addition, the concentration for total growth inhibition (TGI) in the assay with KM12 colon is 5.45 µM; with K-562 leukemia it was > 100 µM; in the assay on UO-31 renal, 1.27 µM; in the assay on LOX IMVI melanoma, 2.91 µM; in the assay with SF-539 CNS, 4.2 µM; in the assay with SN12C renal, 2.92 µM. The TGI with OVCAR-8 ovarian came out at 15 µM; in the assay with COLO 205 colon it was 6.56 µM; with NCI-H522 lung, 4.47 µM; with SW-620 colon, 15.4 µM.

Consider `COC(=O)COc1ccccc1/C=C1\N=C(c2ccccc2)N(c2cc(C(F)(F)F)ccc2Cl)C1=O`, for which the GI50 was 41.7 µM with KM12 colon; 33.8 µM with K-562 leukemia; 22.3 µM in the assay with UO-31 renal; 24.9 µM in the assay on LOX IMVI melanoma; 42.7 µM in the assay on SF-539 CNS; 60.5 µM with SN12C renal. In addition, the GI50 with OVCAR-8 ovarian was 37.3 µM; with COLO 205 colon, 31.7 µM; with NCI-H522 lung, 38.2 µM; in the assay with SW-620 colon, 38.8 µM. In addition, the total growth inhibition concentration (TGI) in the assay on KM12 colon was > 100 µM; with K-562 leukemia it was > 100 µM; with UO-31 renal it was 52.8 µM; in the assay on LOX IMVI melanoma, 73.6 µM; in the assay with SF-539 CNS, > 100 µM; in the assay with SN12C renal it was > 100 µM. Further, the TGI in the assay with OVCAR-8 ovarian, in the assay with COLO 205 colon, with NCI-H522 lung and in the assay on SW-620 colon was > 100 µM throughout.

For `O=C1c2ccccc2C(=O)N1CCn1ccc(NC(c2ccccc2)(c2ccccc2)c2ccccc2)nc1=O`, the total growth inhibition concentration (TGI) stood at 49.1 µM with KM12 colon; 63.8 µM in the assay with K-562 leukemia; 52.8 µM in the assay on UO-31 renal; 31.8 µM in the assay with LOX IMVI melanoma; 30.6 µM in the assay on SF-539 CNS; 83 µM in the assay on SN12C renal. Besides, the TGI is > 100 µM in the assay with OVCAR-8 ovarian, 31.4 µM in the assay on COLO 205 colon, 45.9 µM with NCI-H522 lung and > 100 µM with SW-620 colon.

Take `CSC1=Nc2c(c(C)c(C)n2COC(CO)CO)C2=NC(=O)C(C)N12` (centres undefined): the GI50 in the assay on KM12 colon, with K-562 leukemia, with UO-31 renal, in the assay with LOX IMVI melanoma, with SF-539 CNS and in the assay with SN12C renal was > 100 µM each time. For the same molecule, the GI50 in the assay on OVCAR-8 ovarian, with COLO 205 colon, in the assay with NCI-H522 lung and in the assay on SW-620 colon was > 100 µM throughout. The concentration for total growth inhibition (TGI) in the assay on KM12 colon, in the assay with K-562 leukemia, in the assay with UO-31 renal, in the assay on LOX IMVI melanoma, in the assay on SF-539 CNS and with SN12C renal was > 100 µM each time. Moreover, the TGI in the assay on OVCAR-8 ovarian, in the assay on COLO 205 colon, in the assay on NCI-H522 lung and in the assay with SW-620 colon was > 100 µM each time.
